Here are results for eight molecules from PubChem BioAssay (NCI).

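Growth conditions: 96-well plates. Treatment: test compound, 48 hours, 5 concentrations. Analysis: linear interpolation between bracketing concentrations; unreached endpoints set to highest concentration. GI50 is the concentration that inhibits growth by half. TGI: total growth inhibition.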 Some results are limits rather than exact numbers.

Some test systems named below: HT29 colon; PC-3 prostate; SN12C renal; U251 CNS; OVCAR-4 ovarian; SNB-75 CNS; HL-60(TB) leukemia; A549 NSCLC; IGROV1 ovarian; NCI-H23 lung.
Assay in all cases: growth of human tumour cells (NCI), 48 h

Turning to `CC/C=C\C[C@H](O)C/C=C1/C(=O)C=C[C@@H]1C/C=C\CCCC(=O)NC(C)C`, the GI50 in the experiment on HT29 colon is 2.23 µM; in the experiment on PC-3 prostate it was 2.52 µM; in the experiment on SN12C renal, 2.51 µM; in the experiment on U251 CNS, 2.61 µM; in the experiment on OVCAR-4 ovarian, 4.27 µM; with SNB-75 CNS it was 8.2 µM. The GI50 with HL-60(TB) leukemia was 2.67 µM; with A549 NSCLC, 3.24 µM; in the experiment on IGROV1 ovarian, 2.94 µM; in the experiment on NCI-H23 lung it was 2.33 µM. The TGI in the experiment on HT29 colon was found to be 4.11 µM; with PC-3 prostate, 6.24 µM; in the experiment on SN12C renal, 6.35 µM; with U251 CNS it was 7.08 µM; in the experiment on OVCAR-4 ovarian, 18.4 µM; in the experiment with SNB-75 CNS, 21 µM. Also, the TGI was found to be 9.1 µM with HL-60(TB) leukemia, 9.46 µM in the experiment with A549 NSCLC, 10 µM with IGROV1 ovarian and 6.09 µM in the experiment with NCI-H23 lung.
For the molecule `CC1=C(C)C(=O)c2c(c(C(=O)c3ccccc3)c3nc4ccccc4n3c2C)C1=O`, the GI50 is above 100 µM with HT29 colon; above 100 µM in the experiment with PC-3 prostate; above 100 µM with SN12C renal; 27.5 µM in the experiment with U251 CNS; above 100 µM in the experiment with OVCAR-4 ovarian; 15.8 µM in the experiment on SNB-75 CNS. Further, the GI50 is above 100 µM with HL-60(TB) leukemia, above 100 µM in the experiment on A549 NSCLC, 55.2 µM with IGROV1 ovarian and 46.5 µM with NCI-H23 lung. The TGI in the experiment with HT29 colon is above 100 µM; with PC-3 prostate it was above 100 µM; in the experiment on SN12C renal it was above 100 µM; with U251 CNS it was 79.4 µM; with OVCAR-4 ovarian, above 100 µM; in the experiment with SNB-75 CNS it was 40.3 µM. Further, the TGI with HL-60(TB) leukemia, in the experiment with A549 NSCLC, in the experiment on IGROV1 ovarian and with NCI-H23 lung was above 100 µM throughout.
As to `CCC1=C(C)/C(=C/c2[nH]c(C)c(C(=O)CCCCC(=O)OC)c2C)N=C1c1ccc[nH]1`, the GI50 in the experiment with HT29 colon was 5.11 µM; in the experiment with PC-3 prostate, 4.4 µM; in the experiment with SN12C renal it was 22.2 µM; with U251 CNS, 12.6 µM; in the experiment with OVCAR-4 ovarian, 3.47 µM; in the experiment on SNB-75 CNS, 12.2 µM. Further, the GI50 in the experiment with HL-60(TB) leukemia is 2.53 µM; with A549 NSCLC it was 20.4 µM; with IGROV1 ovarian, 21.5 µM; in the experiment on NCI-H23 lung, 17.3 µM. Also, the TGI with HT29 colon was 38.4 µM; in the experiment on PC-3 prostate, 18 µM; in the experiment on SN12C renal, above 100 µM; in the experiment on U251 CNS, 33.1 µM; in the experiment on OVCAR-4 ovarian it was 17.3 µM; in the experiment with SNB-75 CNS it was 27 µM. Further, the TGI was 9.28 µM in the experiment with HL-60(TB) leukemia, above 53.4 µM in the experiment with A549 NSCLC, above 63.8 µM in the experiment with IGROV1 ovarian and 55.5 µM in the experiment with NCI-H23 lung.
For `O=C(Nc1ccc(-c2nc3cc4ccccc4cc3[nH]2)cc1)c1cccc(Br)c1`, the GI50 in the experiment on HT29 colon was 2.77 µM; in the experiment on PC-3 prostate, 3.02 µM; with SN12C renal, 8.67 µM; in the experiment on U251 CNS it was 5.23 µM; in the experiment on OVCAR-4 ovarian it was 2.88 µM; in the experiment with SNB-75 CNS it was 12.4 µM. For the same molecule, the GI50 is 16.6 µM in the experiment with HL-60(TB) leukemia, 2.83 µM with A549 NSCLC, 15 µM in the experiment on IGROV1 ovarian and 19.2 µM with NCI-H23 lung. Moreover, the TGI in the experiment with HT29 colon turned out to be 11.9 µM; in the experiment with PC-3 prostate, 13.4 µM; in the experiment with SN12C renal, 34.9 µM; in the experiment with U251 CNS, 19 µM; with OVCAR-4 ovarian, 7.97 µM; in the experiment with SNB-75 CNS it was 26.4 µM. Also, the TGI in the experiment on HL-60(TB) leukemia was found to be 48.4 µM; with A549 NSCLC, 10.6 µM; in the experiment with IGROV1 ovarian it was 42.2 µM; in the experiment on NCI-H23 lung, 50.3 µM.
In the case of `Nc1ccccc1C#CC#Cc1ccccc1N`, the GI50 in the experiment with HT29 colon is 20.6 µM; in the experiment on PC-3 prostate, 23.1 µM; in the experiment with SN12C renal it was 14.7 µM; in the experiment with U251 CNS, 8.53 µM; in the experiment on OVCAR-4 ovarian, 23.7 µM; with SNB-75 CNS, 32.3 µM. In addition, the GI50 is 3.97 µM with HL-60(TB) leukemia, 13.8 µM with A549 NSCLC, 18.6 µM in the experiment on IGROV1 ovarian and 4.04 µM in the experiment on NCI-H23 lung. Moreover, the TGI in the experiment on HT29 colon is above 100 µM; in the experiment on PC-3 prostate, above 100 µM; with SN12C renal it was 31.4 µM; with U251 CNS it was 21 µM; in the experiment on OVCAR-4 ovarian it was above 100 µM; in the experiment on SNB-75 CNS, above 100 µM. Moreover, the TGI is above 100 µM with HL-60(TB) leukemia, 87.4 µM in the experiment on A549 NSCLC, 86.2 µM in the experiment with IGROV1 ovarian and 22 µM in the experiment with NCI-H23 lung.
`CCNC(=O)C[C@@H]1N=C(c2ccc(Cl)cc2)c2cc(OC)ccc2-n2c(C)nnc21`: the GI50 is 1.02 µM in the experiment on HT29 colon; 3.15 µM in the experiment with PC-3 prostate; 15.5 µM with SN12C renal; above 67.8 µM in the experiment with U251 CNS; 5.93 µM in the experiment on OVCAR-4 ovarian; 0.034 µM with SNB-75 CNS. The GI50 with HL-60(TB) leukemia is 0.275 µM; in the experiment on A549 NSCLC, 13.1 µM; with IGROV1 ovarian, 12.2 µM; in the experiment with NCI-H23 lung, 13.5 µM. Further, the TGI with HT29 colon was above 100 µM; with PC-3 prostate, above 100 µM; with SN12C renal it was above 100 µM; with U251 CNS, above 100 µM; in the experiment with OVCAR-4 ovarian, above 100 µM; with SNB-75 CNS, 1.6 µM. The TGI with HL-60(TB) leukemia was 38.1 µM; in the experiment on A549 NSCLC, above 100 µM; in the experiment on IGROV1 ovarian, above 100 µM; in the experiment on NCI-H23 lung it was above 100 µM.
For the molecule `Cc1ccc(C)c(NC(=O)C(=O)C2C(=O)C3=C(CC2(C)C)Nc2ccccc2S3)c1` (stereo not given), the TGI in the experiment on HT29 colon, with PC-3 prostate, in the experiment on SN12C renal, in the experiment with U251 CNS, with OVCAR-4 ovarian and in the experiment with SNB-75 CNS was above 100 µM in each case. The TGI in the experiment with HL-60(TB) leukemia, in the experiment with A549 NSCLC, with IGROV1 ovarian and in the experiment on NCI-H23 lung was above 100 µM throughout.
For `COc1cc2oc(=O)cc(C)c2cc1[N+](=O)[O-]`, the TGI with HT29 colon is above 57.8 µM; with PC-3 prostate it was above 67.6 µM; in the experiment with SN12C renal it was 37.2 µM; in the experiment with U251 CNS it was above 100 µM; in the experiment on OVCAR-4 ovarian, 84.1 µM; in the experiment with SNB-75 CNS it was above 100 µM. For the same molecule, the TGI was 44 µM in the experiment with HL-60(TB) leukemia, above 100 µM in the experiment on A549 NSCLC, above 84.8 µM in the experiment on IGROV1 ovarian and 51.5 µM in the experiment with NCI-H23 lung.
